Data on 7 substances can be found in patent publication US10016494B2, “Antigenic epitopes from EBV gp350/220 and uses thereof” (VALORISATION-HSJ, LIMITED PARTNERSHIP, priority 2014, dated 2018).

The test system of test [1] is P3HR1 virus super-infection of Raji cells. Put plainly: EBV antibody neutralization assay. It is filed as cell-based, Epstein-Barr virus. The following applies: FIG. 2B, log10 dilutions of 0.01 to 10 μg/ml. The procedure: Antibody neutralization potency was measured as the inhibition of EBV early antigen (EA) expression upon super-infection of Raji cells by P3HR1 virus (33). Mixtures of concentrated virus (2×10^4 EA-inducing units) and serial dilutions of purified antibody were incubated in a final volume of 0.1 ml for 60 min at 37° C. prior to the addition of 5×10^4 Raji cells. The Raji cell-virus mixture was further incubated for 60 min at 37° C. followed by resuspension in RPMI medium and a 2-day incubation at 37° C. The number of Raji cells expressing EA after cell culture was measured by immunofluorescence, and relative antibody neutralization potency per μg of antibody was calculated.

The test system of test [2] is anti-gp350 monoclonal antibody 72A1. Put plainly: Peptide ELISA: 72A1 antibody binding to plate-coated gp350 mimetic peptides. Also on record: species or system murine. The following applies: for Notes: reactivity with the 72A1 monoclonal antibody: Table III; for binding to the 72A1 antibody: FIG. 4A, peptide coated on ELISA plate. The procedure:
(§1) Gp350 mimetic peptides that were synthesized and HPLC purified to >70% (Elim Biopharmaceuticals®, Hayward, Calif.) were suspended at 2.5 μg/mL in 0.1M carbonate buffer pH 9 prior to their overnight incubation at 4° C. as 100 μL aliquots in a 96 well ELISA plate (Ultident®, St. Laurent, QC). Peptide-coated plates were washed 4× with PBS:0.05% Tween-20®, blocked with 1% BSA:PBS and incubated for a minimum of 2 h at room temperature (RT) with anti-gp350 monoclonal antibody 72A1, or the isotype-matched, background-control anti-LMP1 monoclonal antibody S-12 and 1:100 dilutions of commercial intravenous gamma globulin (IVIG) (18). Bound monoclonal antibodies were detected using biotin-conjugated goat anti-mouse IgG, biotin-conjugated anti-human IgG and horseradish peroxidase (HRP)-conjugated streptavidin (Jackson Immunoresearch Laboratories®, West Grove, Pa.) in conjunction with 3,3′,5,5′-Tetramethylbenzidine substrate (TMB solution, Bioshop®, Burlington ON). HRP enzyme activity was stopped with an equal volume of 1N HCl and wells read at 450nm.
(ELISA stands for enzyme-linked immunosorbent assay.)

Test [3] has as its system 72A1 antibody recognition of gp350 protein. Put plainly: Competition ELISA: 72A1 pre-incubated with gp350 mimetic peptides in solution, then tested for binding to gp350. The following applies: for inhibition of 72A1 antibody recognition of gp350 protein: FIG. 4B, peptide allowed to interact with 72A1 in solution. Further details: species or system Epstein-Barr virus. The procedure: Whole cell ELISA was performed using CEM cells or CEM cells expressing gp350. The cells were washed with PBS, suspended at 1×10^6 cells/mL in PBS and 40 μL aliquots were added to each ELISA plate well. Plates were vacuum-dried prior to cell fixation with cold methanol. Plates were washed with PBS and wells blocked in 1% BSA:PBS prior to a 1 h exposure to monoclonal antibody or monoclonal antibody that was pre-incubated for 2 or more hours with gp350 mimetic peptides. Bound monoclonal antibodies were detected using biotin-conjugated goat anti-mouse IgG, HRP-conjugated streptavidin as outlined above.
Although peptide 3 contained the amino acid sequence EID shown by mutation to result in a loss of 72A1 binding (31), the lack of noted binding by peptide 3 may have been due to inappropriate adsorption to the ELISA plate that interfered with antibody binding. To avoid potential ELISA plate interference, gp350 mimetic peptides were allowed to interact with 72A1 antibody in solution, and later the antibody was tested for its ability to bind to native gp350 protein.

Test [4] deals with human IgG (IVIG, human EBV immune serum). Nature of the test: Peptide ELISA with commercial intravenous gamma globulin (IVIG). As to conditions: FIG. 5, thirty-nine lots of IVIG, ± SD. The class given is binding. The procedure: as §1
Although p2 was recognized by the murine monoclonal antibody 72A1 and was capable of generating antibodies that recognized the gp350 neutralizing epitope in mice, it is unknown whether EBV-positive human sera would recognize this gp350 mimetic peptide. The determination of human IgG reactivity against each of the three peptides could serve as a surrogate indicator of whether the gp350 mimetic peptides would be immunogenic or capable of generating an anti-gp350 antibody response. […] This was followed by p1 at levels of 1.83±0.07 pg/ml and by p3 with antibody levels of 1.7±0.06 pg/ml.

Test [5] in a line: Peptide immunization of mice: anti-peptide IgG by ELISA. The class given is in vivo, Balb/C female mice. As to conditions: FIG. 7A, KLH-coupled peptide 100 μg i.p., after third immunization, ± SEM. As for the experimental part:
(§2) Balb/C female mice were immunized intraperitoneally with 100 μg of keyhole limpet hemocyanin (KLH)-coupled with gp350 mimetic peptide (Sigma Conjugation Kit) emulsified in Sigma Adjuvant System (Sigma-Aldrich). Mice were re-injected every 21 days and blood was drawn 14 days after the second injection. Following the third immunization, IgG levels of peptide reactivity were measured by ELISA.
(§3) Balb/C female mice were immunized intraperitoneally with gp350 mimetic peptides as described in Example 1 above. Following the third immunization, IgG levels of peptide reactivity were measured by ELISA. All mice generated antibodies to their respective peptides with average antibody concentrations (pg/ml) of 97±46 SEM, 122±67 and 981±577 for p1, p2 and p3, respectively (FIG. 7A).

Test [6] relates to native gp350. Nature of the test: Peptide immunization of mice: serum recognition of native gp350. The class given is in vivo, Balb/C female mice. The following applies: FIG. 7B, same mice sera, ± SEM. The procedure: as §2, §3
Test [7] has as its system 72A1 recognition of gp350. Put plainly: Sera from peptide-immunized mice blocking biotinylated-72A1 binding to gp350. It is filed as in vivo, Balb/C female mice. The following applies: FIG. 7C, pooled serum from peptide immunized mice, 1:50 dilution. The procedure:
Histogram of biotinylated-72A1 binding to gp350 protein that was pre-exposed to mouse preimmune (preimm) serum, pooled serum from peptide immunized mice (1:50 dilution), or 1 μg/ml 72A1, or 0.5 mg/ml BSA. Average OD±SEM was derived from three separate experiments. P-values≤0.05 are indicated (*).
as §2, §3

[8] abbreviates: FIG. 4C, altered domain compared to peptide 2.

Turning to “72A1 antibody: well-known mouse monoclonal antibody (IgG1 isotype), EBV gp350 neutralizing, commercially available”, in test [1], the “block of P3HR1 EBV super-infection of Raji cells” value is given as “block P3HR1 virus superinfection of Raji cells”.

Turning to “EEKSAEAAQQPADAAPDSAPDAKMDQ (SEQ ID NO: 32) (Epstein-Barr virus) [Peptide 2.1, 72a1 positive mimeotope]”, in test [2], the “Notes: reactivity with the 72A1 monoclonal antibody” value is 72a1 positive.

On to “DDRTLQLAQNPVYLIPETVPYIKWDN (SEQ ID NO: 4) (Epstein-Barr virus) [Peptide 2]”, for which the “binding to the 72A1 antibody” value in test [2] was “strongly bound”. In addition, in test [3], the “inhibition of 72A1 antibody recognition of gp350 protein” value turned out to be 78%. Besides, the “anti-peptide antibody levels in IVIG” value in test [4] was determined as 2.16 ± 0.08 pg/mL. For the same substance, the “average anti-peptide antibody concentration” value in test [5] was found to be 122 ± 67 pg/mL. Besides, the “average antibody concentration recognizing native gp350” value in test [6] came to 1.3 ± 0.9 pg/mL. Besides, in test [7], the “inhibition of 72A1 recognition of gp350 by antisera” value came out at 38%.

With “AAAAAAAAQNPVYLIPETVPYIKWDN (SEQ ID NO: 33) (Epstein-Barr virus) [Peptide 2.2, Ala substitution of domain 1 of peptide 2]”, the “binding activity compared to parental peptide 2” value in test [2] (FIG. 6B, peptide 2 = 100%) turned out to be 56%. Besides, the “reduction in recognition of p2 by 72A1 antibody” value in test [3] (setting [8]) worked out at 50%.

For “GSAKPGNGSYFASVKTEMLGNEID (SEQ ID NO: 27) (Epstein-Barr virus) [Peptide 3, gp350 mimetic peptide encompassing the central area of the purported gp350 neutralizing domain]”, the “binding to the 72A1 antibody” value in test [2] was “did not bind”. Moreover, in test [3], the “inhibition of 72A1 antibody recognition of gp350 protein” value is on record as 8%. In addition, the “anti-peptide antibody levels in IVIG” value in test [4] stood at 1.7 ± 0.06 pg/mL. Also, in test [5], the “average anti-peptide antibody concentration” value worked out at 981 ± 577 pg/mL. Besides, in test [6], the “average antibody concentration recognizing native gp350” value was 4.1 ± 2.4 pg/mL. For the same substance, the “inhibition of 72A1 recognition of gp350 by antisera” value in test [7] is recorded as 23%.

For the substance “SKAPESTTTSPTLNTTGFADY (SEQ ID NO: 31) (Epstein-Barr virus) [Peptide 1, reference compound]”, in test [2], the “binding to the 72A1 antibody” value was “did not bind” and the “Notes: reactivity with the 72A1 monoclonal antibody” value was 72A1 non-reactive. Besides, in test [2] (FIG. 6A, value subtracted from the peptide 2 series before plotting), the “ELISA activity with 72A1” value is given as 0.355 OD. The “anti-peptide antibody levels in IVIG” value in test [4] stood at 1.83 ± 0.07 pg/mL. For the same substance, in test [5], the “average anti-peptide antibody concentration” value came out at 97 ± 46 pg/mL. The “average antibody concentration recognizing native gp350” value in test [6] was found to be 0.015 ± 0.01 pg/mL.

As to “DDRTLQLAAAPVAALIPAVVPAIAWAA (SEQ ID NO: 34) (Epstein-Barr virus) [Peptide 2.3, Domain 1-LA-altered Domain 2]”, the “binding to the 72A1 monoclonal antibody” value in test [2] (FIGS. 6A and 6B, alanine substitutions) is reported as “did not bind”. Further, in test [3] (setting [8]), the “recognition of p2 by 72A1 antibody after domain alteration” value is “abolished recognition”.
